Assay results: EP2255813A1, “Derivatives of ursodeoxycholic acid for the treatment of diarrhoea” (The Royal College of Surgeons in Ireland, priority 2009, dated 2010)

System: T84 cells
Assay: Cl^- secretion measured as short-circuit current (Isc) across T84 cell monolayers in Ussing chambers
Type: cell-based
Procedure: Materials and Methods: Cultured T84 epithelial cells were employed as a model of the colonic epithelium. T84 cells were grown as monolayers on filter supports. When grown in this way T84 cells retain many of the characteristics of native intestinal epithelium and are widely considered as being among the best reductionist models for analysing intestinal epithelial secretory responses. T84 cell monolayers were mounted in Ussing chambers, and voltage-clamped to zero potential difference. Under these conditions, transepithelial ion transport can be measured as changes in short-circuit current (Isc) and such changes in Isc across T84 cells have been established as wholly due to Cl^- ion secretion. […]

Compound | secretory responses to CCh (100µM and 500µM for 15 minutes before CCh (100µM) (Figure 7)) | secretory responses to FSK (100µM and 500µM for 15 minutes before FSK (10µM) (Figure 7)) | minimal effective concentration (Homo sapiens, responses to CCh, T84 cells (Figure 3B), read-out: concentration at which antisecretory effects are apparent) [µM]
6-methyl-UDCA [MUDCA] | inhibited secretory responses to both CCh and FSK | inhibited secretory responses to both CCh and FSK | –
C[C@H](CCC(=O)O)[C@H]1CC[C@H]2[C@@H]3[C@@H](O)C[C@@H]4C[C@H](O)CC[C@]4(C)[C@H]3CC[C@]12C [UDCA, ursodeoxycholic acid] | – | – | 50
